Experimental data reported in patent US9732075B2, “Benzimidazole-proline derivatives” (IDORSIA PHARMACEUTICALS LTD, priority 2012, dated 2017).

Experiments:
[1] = biological target: human orexin-2 receptor (Homo sapiens (Human), UniProt O43614); experiment: In vitro assay: intracellular calcium measurements (FLIPR), antagonistic activity; format: cell-based; settings: CHO cells expressing human orexin-2 receptor, orexin-A agonist, geometric mean, read-out: IC50 Ox2
Procedure, shortened: (§1)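 IC50s are geometric means, possibly reference-normalized, from FLIPR calcium peaks in CHO cells bearing human orexin-1 or orexin-2 receptor. Fluo-4 AM/probenecid-loaded cells received antagonist for 120 min before challenge with orexin-A (final 3 nM, ~EC70), with responses compared against vehicle controls.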

[2] = biological target: human orexin-1 receptor (Homo sapiens (Human), UniProt O43613); experiment: as above; format: cell-based; settings: CHO cells expressing human orexin-1 receptor, orexin-A agonist, geometric mean, read-out: IC50 Ox1
Procedure, shortened: as §1

human orexin-1 receptor, sequence (O43613 whole entry): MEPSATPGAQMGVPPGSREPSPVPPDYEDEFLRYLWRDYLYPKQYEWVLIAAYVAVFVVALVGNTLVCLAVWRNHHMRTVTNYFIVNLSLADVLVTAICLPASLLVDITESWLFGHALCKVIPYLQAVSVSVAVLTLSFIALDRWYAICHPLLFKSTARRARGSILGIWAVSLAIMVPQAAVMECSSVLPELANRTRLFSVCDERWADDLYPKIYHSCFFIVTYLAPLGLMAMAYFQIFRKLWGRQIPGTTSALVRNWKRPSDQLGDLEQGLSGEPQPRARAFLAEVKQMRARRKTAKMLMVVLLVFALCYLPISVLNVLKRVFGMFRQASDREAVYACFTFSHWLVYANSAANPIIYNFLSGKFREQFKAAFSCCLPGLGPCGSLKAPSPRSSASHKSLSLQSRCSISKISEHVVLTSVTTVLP
human orexin-2 receptor, sequence (O43614 whole entry): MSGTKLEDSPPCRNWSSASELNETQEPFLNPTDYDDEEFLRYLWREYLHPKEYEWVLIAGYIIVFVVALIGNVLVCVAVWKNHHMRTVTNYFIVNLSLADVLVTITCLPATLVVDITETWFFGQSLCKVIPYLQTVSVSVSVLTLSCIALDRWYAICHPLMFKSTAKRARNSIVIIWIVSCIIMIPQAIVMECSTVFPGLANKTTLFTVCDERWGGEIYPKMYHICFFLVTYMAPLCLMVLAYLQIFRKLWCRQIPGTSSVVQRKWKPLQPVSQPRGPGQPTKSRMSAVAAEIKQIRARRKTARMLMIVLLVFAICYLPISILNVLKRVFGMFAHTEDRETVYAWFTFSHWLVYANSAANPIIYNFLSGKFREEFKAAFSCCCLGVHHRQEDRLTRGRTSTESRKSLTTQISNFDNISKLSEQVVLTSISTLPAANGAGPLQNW

| IC50 [1] [nM] | IC50 [2] [nM] | Structure (SMILES) |
| --- | --- | --- |
| 380 | 34 | Cc1ccc(-c2ncccn2)c(C(=O)N2CCC[C@@]2(C)c2nc3cc(OC(F)(F)F)ccc3[nH]2)c1 [Ex. 5.281] |
| 97 | 47 | Cc1ccc(-c2ncccn2)c(C(=O)N2CCC[C@@]2(C)c2nc3cc(F)c(Br)cc3[nH]2)c1 [Ex. 5.282] |
| 18 | 10 | Cc1ccc(-c2ncccn2)c(C(=O)N2CCC[C@@]2(C)c2nc3cc(C)c(C)cc3[nH]2)c1 [Ex. 5.284] |
| 452 | 32 | C[C@@]1(c2nc3cc(Cl)c(C(F)(F)F)cc3[nH]2)CCCN1C(=O)c1nc(-c2ccccc2)sc1-c1ccc(F)cc1 [Ex. 5.285] |
| 4590 | 40 | Cc1ccccc1-c1nc(C(=O)N2CCC[C@@]2(C)c2nc3cc(Cl)c(C(F)(F)F)cc3[nH]2)c(-c2ccc(F)cc2)s1 [Ex. 5.286] |
| 1160 | 53 | Cc1cccc(-c2nc(C(=O)N3CCC[C@@]3(C)c3nc4cc(Cl)c(C(F)(F)F)cc4[nH]3)c(-c3ccc(F)cc3)s2)c1 [Ex. 5.287] |
| 1340 | 38 | Cc1ccc(-c2nc(C(=O)N3CCC[C@@]3(C)c3nc4cc(Cl)c(C(F)(F)F)cc4[nH]3)c(-c3ccc(F)cc3)s2)cc1 [Ex. 5.288] |
| 532 | 38 | C[C@@]1(c2nc3cc(Cl)c(C(F)(F)F)cc3[nH]2)CCCN1C(=O)c1nc(-c2ccccc2F)sc1-c1ccc(F)cc1 [Ex. 5.289] |
| 2140 | 33 | C[C@@]1(c2nc3cc(Cl)c(C(F)(F)F)cc3[nH]2)CCCN1C(=O)c1nc(-c2cccc(F)c2)sc1-c1ccc(F)cc1 [Ex. 5.290] |
| 347 | 48 | C[C@@]1(c2nc3cc(Cl)c(C(F)(F)F)cc3[nH]2)CCCN1C(=O)c1nc(-c2ccc(F)cc2)sc1-c1ccc(F)cc1 [Ex. 5.291] |
| 671 | 34 | COc1cccc(-c2nc(C(=O)N3CCC[C@@]3(C)c3nc4cc(Cl)c(C(F)(F)F)cc4[nH]3)c(-c3ccc(F)cc3)s2)c1 [Ex. 5.292] |
| 4040 | 77 | COc1ccc(-c2nc(C(=O)N3CCC[C@@]3(C)c3nc4cc(Cl)c(C(F)(F)F)cc4[nH]3)c(-c3ccc(F)cc3)s2)cc1 [Ex. 5.293] |
| 714 | 39 | C[C@@]1(c2nc3ccc(C(F)(F)F)cc3[nH]2)CCCN1C(=O)c1nc(-c2ccccc2F)sc1-c1ccc(F)cc1 [Ex. 5.294] |
| 254 | 8 | C[C@@]1(c2nc3cc(C(F)(F)F)ccc3[nH]2)CCCN1C(=O)c1cc(-c2cccc(C#N)c2)ccc1-n1nccn1 [Ex. 5.295] |
| 31 | 25 | COc1cccc(-c2ccc(OC)c(F)c2C(=O)N2CCC[C@@]2(C)c2nc3c(C)c(Cl)ccc3[nH]2)c1 [Ex. 5.296] |
| 57 | 41 | COc1ccc(-c2ccc(OC)c(F)c2C(=O)N2CCC[C@@]2(C)c2nc3c(C)c(Cl)ccc3[nH]2)cc1 [Ex. 5.297] |
| 21 | 15 | COc1ccc(-c2ccccc2F)c(C(=O)N2CCC[C@@]2(C)c2nc3c(C)c(Cl)ccc3[nH]2)c1F [Ex. 5.298] |
| 21 | 17 | COc1ccc(-c2ccc(F)cc2)c(C(=O)N2CCC[C@@]2(C)c2nc3ccc(Cl)c(C)c3[nH]2)c1F [Ex. 5.299] |
| 18 | 10 | COc1ccc(-c2cccc(F)c2)c(C(=O)N2CCC[C@@]2(C)c2nc3ccc(Cl)c(C)c3[nH]2)c1F [Ex. 5.300] |

| IC50 [1] [nM] | IC50 [2] [nM] | Structure (SMILES) |
| --- | --- | --- |
| 16 | 24 | COc1ccc(-c2cccc(C)c2)c(C(=O)N2CCC[C@@]2(C)c2nc3ccc(Cl)c(C)c3[nH]2)c1F [Ex. 5.301] |
| 42 | 28 | COc1ccc(-c2ccc(C)cc2)c(C(=O)N2CCC[C@@]2(C)c2nc3ccc(Cl)c(C)c3[nH]2)c1F [Ex. 5.302] |
| 21 | 29 | COc1ccc(-c2cccc(C(F)(F)F)c2)c(C(=O)N2CCC[C@@]2(C)c2nc3ccc(Cl)c(C)c3[nH]2)c1F [Ex. 5.303] |
| 86 | 19 | COc1ccc(-c2ccc3c(c2)OCO3)c(C(=O)N2CCC[C@@]2(C)c2nc3c(C)c(Cl)ccc3[nH]2)c1F [Ex. 5.304] |
| 41 | 35 | COc1ccc(-c2ccc(C(F)(F)F)cc2)c(C(=O)N2CCC[C@@]2(C)c2nc3ccc(Cl)c(C)c3[nH]2)c1F [Ex. 5.305] |
| 69 | 33 | COc1ccc(-c2ccc(OC(F)(F)F)cc2)c(C(=O)N2CCC[C@@]2(C)c2nc3c(C)c(Cl)ccc3[nH]2)c1F [Ex. 5.306] |
| 49 | 20 | COc1ccc(-c2cccc(C#N)c2)c(C(=O)N2CCC[C@@]2(C)c2nc3c(C)c(Cl)ccc3[nH]2)c1F [Ex. 5.307] |
| 122 | 21 | COc1ccc(-c2ccc(C#N)cc2)c(C(=O)N2CCC[C@@]2(C)c2nc3c(C)c(Cl)ccc3[nH]2)c1F [Ex. 5.308] |
| 21 | 23 | COc1ccc(-c2cccc(OC(F)(F)F)c2)c(C(=O)N2CCC[C@@]2(C)c2nc3c(C)c(Cl)ccc3[nH]2)c1F [Ex. 5.309] |
| 70 | 32 | Cc1cc(C(=O)N2CCC[C@@]2(C)c2nc3c(C)cc(Br)cc3[nH]2)c(-c2ccccc2)cn1 [Ex. 5.310] |
| 17 | 223 | C=C1C[C@@H](c2nc3cc(OC)ccc3[nH]2)N(C(=O)c2nc(C)sc2-c2ccc(OC)cc2)C1 [Ex. 6.2] |
| 18 | 243 | C=C1C[C@@H](c2nc3cc(OC)ccc3[nH]2)N(C(=O)c2nc(C)sc2-c2ccccc2)C1 [Ex. 6.3] |
| 118 | 2510 | C=C1C[C@@H](c2nc3cc(OC)ccc3[nH]2)N(C(=O)c2nccnc2-c2ccc(C)cc2)C1 [Ex. 6.4] |
| 19 | 216 | C=C1C[C@@H](c2nc3cc(OC)ccc3[nH]2)N(C(=O)c2nc(C)sc2-c2ccc(Cl)cc2)C1 [Ex. 6.5] |
| 52 | 477 | C=C1C[C@@H](c2nc3cc(OC)ccc3[nH]2)N(C(=O)c2nccnc2-c2cccc(C)c2)C1 [Ex. 6.6] |
| 3 | 15 | C=C1C[C@@H](c2nc3cc(OC)ccc3[nH]2)N(C(=O)c2nc(C)sc2-c2cccc(C)c2)C1 [Ex. 6.7] |
| 7 | 21 | C=C1C[C@@H](c2nc3cc(OC)ccc3[nH]2)N(C(=O)c2nc(C)sc2-c2cccc(Cl)c2)C1 [Ex. 6.8] |
| 4 | 7 | C=C1C[C@@H](c2nc3cc(OC)ccc3[nH]2)N(C(=O)c2nc(C)sc2-c2ccc(C)c(C)c2)C1 [Ex. 6.9] |
| 81 | 206 | C=C1C[C@@H](c2nc3cc(OC)ccc3[nH]2)N(C(=O)c2nc(C3CC3)sc2-c2ccccc2)C1 [Ex. 6.10] |

| IC50 [1] [nM] | IC50 [2] [nM] | Structure (SMILES) |
| --- | --- | --- |
| 56 | 135 | C=C1C[C@@H](c2nc3cc(OC)ccc3[nH]2)N(C(=O)c2cnc(C)nc2-c2cccc(C)c2)C1 [Ex. 6.11] |
| 6 | 317 | C=C1C[C@@H](c2nc3cc(OC)ccc3[nH]2)N(C(=O)c2cc(C)ccc2-n2nccn2)C1 [Ex. 6.12] |
| 17 | 155 | C=C1C[C@@H](c2nc3cc(OC)ccc3[nH]2)N(C(=O)c2ccccc2-n2nccn2)C1 [Ex. 6.13] |
| 12 | 87 | C=C1C[C@@H](c2nc3cc(OC)ccc3[nH]2)N(C(=O)c2ccccc2-c2cccc(C)c2)C1 [Ex. 6.14] |
| 37 | 298 | C=C1C[C@@H](c2nc3cc(OC)ccc3[nH]2)N(C(=O)c2ccccc2-c2ccc(C)cc2)C1 [Ex. 6.15] |
| 151 | 307 | C=C1C[C@@H](c2nc3cc(OC)ccc3[nH]2)N(C(=O)c2cnc(C)nc2-c2ccccc2)C1 [Ex. 6.16] |
| 47 | 308 | C=C1C[C@@H](c2nc3cc(OC)ccc3[nH]2)N(C(=O)c2cncnc2-c2cccc(C)c2)C1 [Ex. 6.17] |
| 29 | 1530 | C=C1C[C@@H](c2nc3cc(OC)ccc3[nH]2)N(C(=O)c2cc(F)ccc2-n2nccn2)C1 [Ex. 6.18] |
| 61 | 1530 | C=C1C[C@@H](c2nc3cc(OC)ccc3[nH]2)N(C(=O)c2c(F)cccc2-n2nccn2)C1 [Ex. 6.19] |
| 49 | 1750 | C=C1C[C@@H](c2nc3cc(OC)ccc3[nH]2)N(C(=O)c2ccccc2-c2nc(C)no2)C1 [Ex. 6.20] |
| 76 | 1970 | C=C1C[C@@H](c2nc3cc(OC)ccc3[nH]2)N(C(=O)c2ccccc2-c2csc(C)n2)C1 [Ex. 6.21] |
| 19 | 410 | C=C1C[C@@H](c2nc3cc(OC)ccc3[nH]2)N(C(=O)c2nc(C)sc2-c2ccc(Br)cc2)C1 [Ex. 6.22] |
| 67 | 452 | C=C1C[C@@H](c2nc3cc(OC)ccc3[nH]2)N(C(=O)c2nc(C)sc2-c2cccc(Cl)c2Cl)C1 [Ex. 6.23] |
| 17 | 53 | C=C1C[C@@H](c2nc3cc(OC)ccc3[nH]2)N(C(=O)c2nc(C)sc2-c2ccc(F)c(Br)c2)C1 [Ex. 6.24] |
| 52 | 154 | C=C1C[C@@H](c2nc3cc(OC)ccc3[nH]2)N(C(=O)c2nc(C3CC3)sc2-c2ccc(C)c(F)c2)C1 [Ex. 6.25] |
| 24 | 26 | C=C1C[C@@H](c2nc3cc(OC)ccc3[nH]2)N(C(=O)c2nc(C3CC3)sc2-c2cccc(C)c2)C1 [Ex. 6.26] |
| 9 | 5 | C=C1C[C@@H](c2nc3cc(OC)ccc3[nH]2)N(C(=O)c2nc(N(C)C)sc2-c2ccc(C)c(C)c2)C1 [Ex. 6.27] |
| 15 | 20 | C=C1C[C@@H](c2nc3cc(OC)ccc3[nH]2)N(C(=O)c2nc(C3CC3)sc2-c2cccc(Br)c2)C1 [Ex. 6.28] |
| 92 | 69 | C=C1C[C@@H](c2nc3cc(OC)ccc3[nH]2)N(C(=O)c2nc(N3CCCC3)sc2-c2cccc(F)c2)C1 [Ex. 6.29] |
